From BindingDB's records for doi:10.1080/14756360310001613094 (Xiamen University, 2003)

biological target: T1, Polyphenol oxidase 2 (Agaricus bisporus, UniProt O42713); test: Inhibition Assay
T1 sequence (O42713 whole entry): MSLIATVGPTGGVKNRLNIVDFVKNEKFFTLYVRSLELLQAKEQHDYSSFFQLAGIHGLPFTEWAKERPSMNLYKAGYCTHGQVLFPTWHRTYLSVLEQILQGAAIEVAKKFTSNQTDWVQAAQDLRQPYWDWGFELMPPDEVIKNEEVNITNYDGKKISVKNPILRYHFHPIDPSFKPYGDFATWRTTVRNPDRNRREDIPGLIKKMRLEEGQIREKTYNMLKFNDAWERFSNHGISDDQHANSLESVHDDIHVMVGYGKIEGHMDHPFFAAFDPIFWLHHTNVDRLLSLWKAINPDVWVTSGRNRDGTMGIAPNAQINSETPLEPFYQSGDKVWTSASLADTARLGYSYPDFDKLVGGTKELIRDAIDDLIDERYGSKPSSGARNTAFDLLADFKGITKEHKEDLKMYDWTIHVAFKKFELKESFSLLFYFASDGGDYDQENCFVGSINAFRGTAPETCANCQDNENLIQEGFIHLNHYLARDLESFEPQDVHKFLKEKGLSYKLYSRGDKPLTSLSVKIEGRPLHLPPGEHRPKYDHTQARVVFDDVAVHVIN
Source text: Inhibition of alklbenzaldehydes on tyrosinase enzyme.

SMILES | IC50 [µM] | Ki [mM]
Cc1ccc(C=O)cc1 [4-Methylbenzaldehyde] | 120 | 
Cc1cccc(C=O)c1 [m-Tolualdehyde, b] | 450 | 0.29
Cc1ccccc1C=O [o-Tolualdehyde, a] | 2600 | 1.85
CCc1ccc(C=O)cc1 [p-Ethylbenzaldehyde, d] | 95 | 
CCCCCCCc1ccc(C=O)cc1 [p-Heptylbenzaldehyde, k] | 8.8 | 
CCCCCCc1ccc(C=O)cc1 [p-Hexylbenzaldehyde, j] | 8 | 
CC(C)c1ccc(C=O)cc1 [p-Isopropylbenzaldehyde, f] | 75 | 
CCCCCCCCc1ccc(C=O)cc1 [p-Octylbenzaldehyde, l] | 10 | 

Continued, in another order:

IC50 [µM] | SMILES | Ki [mM]
13.5 | CCCCCc1ccc(C=O)cc1 [p-Pentylbenzaldehyde, i] | 
75 | CCCc1ccc(C=O)cc1 [p-Propyl-benzaldehyde, e] | 
38 | CC(C)(C)c1ccc(C=O)cc1 [p-Tert-butylbenzaldehyde, g] | 
38 | CCCCc1ccc(C=O)cc1 [p-butyl-benzaldehyde, h] | 
